# According to patent US6492329B1, “Cytokine and hemopoietic factor endogenous production enhancer and methods of use thereof” (Novelos Therapeutics, Inc., priority 1995, dated 2002):
# Columns and labels:
# [1] = tested on: e-ras cells after UV-irradiation; experiment: Number of clones of e-ras cells after UV-irradiation; type: cell-based, rat
# Experimental: (§1) To this end, these substances had been incubated for 72 hours with cells of rat embrional fibroblasts (REF) and the same cells, transformed with adenoviral E1A gene in complementation with ras-oncogene (e-ras cell line). Subsequent evaluation of the cellularity of experimental samples was carried out by counting the quantity of cell per milliliter (for REF cell line) or clones in dish (for e-ras cell line).
# (§2) Cells were cultivated on DMEM medium supplemented with 10% fetal calf serum and […] gentamicin. Cultivation was carried out in Petri dishes.
# (§3) E-ras cells were seeded at a cell density of 300 cells per 5 cm dish. 7 days after growth of e-ras cells had been started the quantity of clones was evaluated and the test articles were added into the dishes.
# (§4) For the test-system for estimation of apoptosis regulation UV-induced cell death was triggered in a dose of 4 Dj. Test articles were added immediately after irradiation. Then, the quantity of cell per milliliter (for REF cell line) or clones in dish (for e-ras cell line) were monitored every 24 hours. For determination of DNA-fragmentation the electrophoresis in agarose gel was used at standard settings.
# HL-60 cells = experiment: Proliferation/apoptosis of HL-60 tumor cells (cell number per well, flow cytofluorometry)
# Experimental: Subsequent evaluation of the cell cycle parameters was carried out by the flow cytofluorometry technique.
# A mononuclear fraction of blood leukocytes were obtained by centrifugation in gradient of fikoll-metrizoat (Histopaque, Sigma). […] Cell viability was estimated by the Trypan blue exclusion method, then the cell suspension was placed into wells of 96-well microtiter plates—200,000 cells per well. […] Cultivation was carried out in closed flasks, the medium volume was 12 mL, it was changed every four days by centrifugation. The nature of the cells growth was suspensive. […] 50 μL of each test solution were added to one or the other cell culture and thereafter cells were cultivated for 24-96 hours. Then, they were tested by the flow cytofluorometry to estimate DNA content in the cell nuclei. In case of apoptosis-like cellular death, the portion of cell nuclei with normal content of DNA became reduced, while the portion of cell nuclei containing abnormally small DNA quantity became larger.
# The analysis procedure was the following: after incubation completion, cells were centrifuged and transferred to a standard phosphate isotonic buffer pH 7.4, containing RNA-ase A (20 μg/mL), ethidium bromide (fluorometric indicator for double stranded nucleic acid. 10 μg/mL) and MgCl2 (5 mM). After the cells were disintegrated by nonionic detergent Triton X-100 (final concentration 0.1%). The suspension of cell nuclei thus obtained was analyzed by flow cytofluorometry with an argon laser as a source of light (wave length 488 nm). The red fluorescence due to DNA bound ethidium bromide was taken to be the measure of DNA content in the cell nuclei.
# leukemia P388 cells [2] = experiment: Leukemia P388 in mice: serum cytokines, ascitic fluid, survival (Example 5); details: for Accumulation of ascitic fluid (weight gain) / Concentration in serum: IFNα / Concentration in serum: IL-1 / Concentration in serum: IL-2 / Concentration in serum: IL-6 / Concentration in serum: TNFα: P388 mice
# Experimental: (§6) An influence of 7 day course of test article daily administration was studied in respect of variations of serum cytokine levels (IL-1, IL-2, IL-6, IFNα, TNF). In parallel, the tumor progression was estimated using the two integral indices: pace of mouse weight gain due to accumulation of ascitic fluid, and by animal mean survival time after inoculation.
# (§7) The study was carried out on DBA/2 mice weighing 18-21 g. First, tumor cell passage was performed using 6 animals for each cell line. For this, cells kept at the temperature of the liquid nitrogen were de-frozen and adjusted to the concentration of 5×10^6 cells/mL by sterile Hanks' solution. Then, 6 mice were intraperitoneally inoculated with 0.2 mL of each line cellular suspension.
# (§8) Ascitic fluid was collected 6 days after the inoculation with L1210 cells and 8 days after the inoculation with P388 ones. Thus obtained, the samples of passaged tumor cells were used for the main experiments. The fluid liquid was dissolved by sterile Hanks' solution so that cell concentration be 5×10^6 cells/mL for P388 cells and 5×10^5 cells/mL for L1210 cells.
# (§9) Nine groups of animals with no less than 15 mice each were formed for experiments with either tumor cell line. Mice were inoculated with 0.2 mL of resultant cell suspensions per mouse (10^6 P388 cells/mouse, and 10^5 L1210 cells/mouse). 24 hours after the tumor cells inoculation. animals were given the first injections of the test articles or vehicles. The test article injections were made daily till the 14th day of the experiment or until the animal's death. The volume of solutions injected comprised 0.01 mL/g body weight.
# (§10) #1—intact animals receiving imitation of tumor cell inoculation (injection of normal saline) which further were treated with normal saline throughout the entire experiment;
# (§11) #2—control animals, inoculated with tumor cells, which further were treated with test article vehicle (normal saline);
# [3] = tested on: e-ras cell line (REF transformed with E1A and ras-oncogene); experiment: Number of clones of e-ras cells throughout 72-hr incubation; type: cell-based, rat
# Experimental: as §1, §2, §3, §4
# [4] = tested on: rat embrional fibroblasts (REF) after UV-irradiation; experiment: Number of REF cells after UV-irradiation; type: cell-based
# Experimental: as §1, §2
# (§5) REF cells was cultivated with initial density of 800 000 cell per mL, evaluation of the cellularity was performed at 0, 24, 48 and 72 hours of incubation with the test articles.
# as §4
# leukemia L1210 cells [5] = experiment: Leukemia L1210 in mice: ascitic fluid and survival (Example 14); details: for Accumulation of ascitic (weight gain, %): leukemia L1210; for Mean survival time: mice inoculated with leukemia L1210 cells
# Experimental: (§12) An influence of 7 day course of test article daily administration was studied in respect of tumor progression, which was estimated using the two integral indices: pace of mouse weight gain due to accumulation of ascitic fluid, and by animal mean survival time after inoculation.
# (§13) The study was carried out on DBA/2 mice weighing 18-21 g. First, tumor cell passage was performed using 6 animals for each cell line. For this, cells kept at the temperature of the liquid nitrogen were de-frozen and adjusted to the concentration of 5×10^6 cells/mL by sterile Hanks' solution. Then, 6 mice were intra peritoneally inoculated with 0.2 mL of each line cellular suspension.
# (§14) Ascitic fluid was collected 6 days after the inoculation with L1210 cells, 8 days after the inoculation with P388 ones and 18 days after inoculation with Erlich adenocarcinoma cells. Thus obtained, the samples of passaged tumor cells were used for the main experiments. The fluid liquid was dissolved by sterile Hanks' solution so that cell concentration be 5×10^6 cells/mL for P388 cells and Erlich adenocarcinoma cells, 5×10^5 cells/mL for L1210 cells.
# (§15) Eleven groups of animals with no less than 15 mice each were formed for experiments with either tumor cell line. Mice were inoculated with 0.2 mL of resultant cell suspensions per mouse (10^6 P388 and Erlich adenocarcinoma cells/mouse, and 10^5 L1210 cells/mouse). 24 hours after the tumor cells inoculation, animals were given the first injections of the test articles or vehicles. The test article injections were made daily till the 14th day of the experiment or till the animal death. The volume of solutions injected comprised 0.01 mL/g body weight.
# as §10, §11
# [6] = tested on: rat embrional fibroblasts (REF); experiment: Number of REF cells throughout 72-hr incubation; type: cell-based
# Experimental: as §1, §2, §5, §4
# leukemia L1210 cells [7] = experiment: Leukemia L1210 in mice: serum cytokines, ascitic fluid, survival (Example 5); details: for Accumulation of ascitic fluid (weight gain) / Concentration in serum: IFNα / Concentration in serum: IL-1 / Concentration in serum: IL-2 / Concentration in serum: IL-6 / Concentration in serum: TNFα: L1210 mice
# Experimental: as §6, §7, §8, §9, §10, §11
# leukemia P388 cells [8] = experiment: Leukemia P388 in mice: ascitic fluid and survival (Example 14); details: for Accumulation of ascitic (weight gain, %): leukemia P388; for Mean survival time: mice inoculated with leukemia P388 cells
# Experimental: as §12, §13, §14, §15, §10, §11
# [9] = tested on: Erlich adenocarcinoma cells; experiment: Erlich adenocarcinoma in mice: ascitic fluid and survival (Example 14); details: for Accumulation of ascitic (weight gain, %): Erlich adenocarcinoma; for Mean survival time: mice inoculated with Erlich adenocarcinoma cells
# Experimental: as §12, §13, §14, §15, §10, §11
# normal human lymphocytes = experiment: Proliferation/apoptosis of normal human lymphocytes (cell number per well, flow cytofluorometry); type: cell-based
structure (smiles),measurement,setting,value
"NCCSSCCN [0.1% cystamine, 2,2′-Dithio-bis[ethylamine]]",number of clones of e-ras cells after UV-irradiation (M ± m),[1]; 0 hours,276 ± 4
same,number of clones of e-ras cells after UV-irradiation (M ± m),[1]; 24 hours,181 ± 4
same,number of clones of e-ras cells after UV-irradiation (M ± m),[1]; 48 hours,111 ± 6
same,number of clones of e-ras cells after UV-irradiation (M ± m),[1]; 72 hours,108 ± 3
same,number of HL-60 cells per well,HL-60 cells; 24 hours incubation,112 ± 10 × 10^4 cells
same,number of HL-60 cells per well,HL-60 cells; 48 hours incubation,182 ± 9 × 10^4 cells
same,number of HL-60 cells per well,HL-60 cells; 72 hours incubation,465 ± 11 × 10^4 cells
same,number of HL-60 cells per well,HL-60 cells; 96 hours incubation,618 ± 19 × 10^4 cells
same,Accumulation of ascitic fluid (weight gain),leukemia P388 cells [2]; 0 injections,0.67 ± 0.22%
same,Concentration in serum: IFNα,leukemia P388 cells [2]; 0 injections,107 ± 8.06 pg/mL
same,Concentration in serum: IL-1,leukemia P388 cells [2]; 0 injections,30.0 ± 4.02 pg/mL
same,Concentration in serum: IL-2,leukemia P388 cells [2]; 0 injections,14.9 ± 2.05 pg/mL
same,Concentration in serum: IL-6,leukemia P388 cells [2]; 0 injections,72.7 ± 9.10 pg/mL
same,Concentration in serum: TNFα,leukemia P388 cells [2]; 0 injections,80.5 ± 7.14 pg/mL
same,Accumulation of ascitic fluid (weight gain),leukemia P388 cells [2]; 3 daily injections,6.0 ± 0.49%
same,Concentration in serum: IFNα,leukemia P388 cells [2]; 3 daily injections,216. ± 19.08 pg/mL
same,Concentration in serum: IL-1,leukemia P388 cells [2]; 3 daily injections,41.5 ± 5.81 pg/mL
same,Concentration in serum: IL-2,leukemia P388 cells [2]; 3 daily injections,15.25 ± 1.80 pg/mL
same,Concentration in serum: IL-6,leukemia P388 cells [2]; 3 daily injections,184.0 ± 15.6 pg/mL
same,Concentration in serum: TNFα,leukemia P388 cells [2]; 3 daily injections,204. ± 16.1 pg/mL
same,Accumulation of ascitic fluid (weight gain),leukemia P388 cells [2]; 7 daily injections,19.9 ± 1.67%
same,Concentration in serum: IFNα,leukemia P388 cells [2]; 7 daily injections,315. ± 9.80 pg/mL
same,Concentration in serum: IL-1,leukemia P388 cells [2]; 7 daily injections,22.3 ± 3.0 pg/mL
same,Concentration in serum: IL-2,leukemia P388 cells [2]; 7 daily injections,20.18 ± 2.50 pg/mL
same,Concentration in serum: IL-6,leukemia P388 cells [2]; 7 daily injections,170.6 ± 14.3 pg/mL
same,Concentration in serum: TNFα,leukemia P388 cells [2]; 7 daily injections,220. ± 19.1 pg/mL
same,Mean survival time,"leukemia P388 cells [2]; mice inoculated with leukemia P388 cells, daily injections till day 14 or death",9.93 ± 0.27
same,number of clones of e-ras cells (M ± m),[3]; 0 hours of incubation,276 ± 4
same,number of clones of e-ras cells (M ± m),[3]; 24 hours of incubation,281 ± 4
same,number of clones of e-ras cells (M ± m),[3]; 48 hours of incubation,271 ± 6
same,number of clones of e-ras cells (M ± m),[3]; 72 hours of incubation,258 ± 3
same,number of REF cells after UV-irradiation (M ± m),[4]; 0 hours,822 ± 14 × 10^3 cells
same,number of REF cells after UV-irradiation (M ± m),[4]; 24 hours,523 ± 11 × 10^3 cells
same,number of REF cells after UV-irradiation (M ± m),[4]; 48 hours,246 ± 34 × 10^3 cells
same,number of REF cells after UV-irradiation (M ± m),[4]; 72 hours,208 ± 26 × 10^3 cells
same,"Accumulation of ascitic (weight gain, %)",leukemia L1210 cells [5]; number of injection 0,0.42 ± 0.3%
same,"Accumulation of ascitic (weight gain, %)",leukemia L1210 cells [5]; number of injection 3,8.2 ± 0.6%
same,"Accumulation of ascitic (weight gain, %)",leukemia L1210 cells [5]; number of injection 7,24.8 ± 2.1%
same,Mean survival time,leukemia L1210 cells [5],10.2 ± 0.8
same,number of REF cells (M ± m),[6]; 0 hours of incubation,822 ± 14 × 10^3 cells
same,number of REF cells (M ± m),[6]; 24 hours of incubation,1523 ± 11 × 10^3 cells
same,number of REF cells (M ± m),[6]; 48 hours of incubation,2486 ± 34 × 10^3 cells
same,number of REF cells (M ± m),[6]; 72 hours of incubation,5048 ± 126 × 10^3 cells
same,Accumulation of ascitic fluid (weight gain),leukemia L1210 cells [7]; 0 injections,0.47%
same,Concentration in serum: IFNα,leukemia L1210 cells [7]; 0 injections,115.0 pg/mL
same,Concentration in serum: IL-1,leukemia L1210 cells [7]; 0 injections,36.0 pg/mL
same,Concentration in serum: IL-2,leukemia L1210 cells [7]; 0 injections,16.9 pg/mL
same,Concentration in serum: IL-6,leukemia L1210 cells [7]; 0 injections,63.0 pg/mL
same,Concentration in serum: TNFα,leukemia L1210 cells [7]; 0 injections,88.6 pg/mL
same,Accumulation of ascitic fluid (weight gain),leukemia L1210 cells [7]; 3 daily injections,5.93%
same,Concentration in serum: IFNα,leukemia L1210 cells [7]; 3 daily injections,200. pg/mL
same,Concentration in serum: IL-1,leukemia L1210 cells [7]; 3 daily injections,47.50 pg/mL
same,Concentration in serum: IL-2,leukemia L1210 cells [7]; 3 daily injections,17.30 pg/mL
same,Concentration in serum: IL-6,leukemia L1210 cells [7]; 3 daily injections,70.0 pg/mL
same,Concentration in serum: TNFα,leukemia L1210 cells [7]; 3 daily injections,185.0 pg/mL
same,Accumulation of ascitic fluid (weight gain),leukemia L1210 cells [7]; 7 daily injections,21.17%
same,Concentration in serum: IFNα,leukemia L1210 cells [7]; 7 daily injections,137.0 pg/mL
same,Concentration in serum: IL-1,leukemia L1210 cells [7]; 7 daily injections,28.0 pg/mL
same,Concentration in serum: IL-2,leukemia L1210 cells [7]; 7 daily injections,22.8 pg/mL
same,Concentration in serum: IL-6,leukemia L1210 cells [7]; 7 daily injections,155.0 pg/mL
same,Concentration in serum: TNFα,leukemia L1210 cells [7]; 7 daily injections,213.0 pg/mL
same,Mean survival time,"leukemia L1210 cells [7]; mice inoculated with leukemia L1210 cells, daily injections till day 14 or death",9.53 ± 0.18
same,"Accumulation of ascitic (weight gain, %)",leukemia P388 cells [8]; number of injection 0,0.4 ± 0.3%
same,"Accumulation of ascitic (weight gain, %)",leukemia P388 cells [8]; number of injection 3,5.2 ± 0.6%
same,"Accumulation of ascitic (weight gain, %)",leukemia P388 cells [8]; number of injection 7,18.8 ± 1.1%
same,Mean survival time,leukemia P388 cells [8],20.2 ± 0.3
same,"Accumulation of ascitic (weight gain, %)",[9]; number of injection 0,0.6 ± 0.2%
same,"Accumulation of ascitic (weight gain, %)",[9]; number of injection 3,9.2 ± 0.8%
same,"Accumulation of ascitic (weight gain, %)",[9]; number of injection 7,25.8 ± 1.7%
same,Mean survival time,[9],10.2 ± 0.8
same,number of normal lymphocytes per well,normal human lymphocytes; 24 hours incubation,30 ± 2 × 10^4 cells
same,number of normal lymphocytes per well,normal human lymphocytes; 48 hours incubation,72 ± 4 × 10^4 cells
same,number of normal lymphocytes per well,normal human lymphocytes; 72 hours incubation,122 ± 9 × 10^4 cells
same,number of normal lymphocytes per well,normal human lymphocytes; 96 hours incubation,196 ± 11 × 10^4 cells
C[S+](C)[O-] [7% DMSO],number of clones of e-ras cells after UV-irradiation (M ± m),[1]; 0 hours,268 ± 11
same,number of clones of e-ras cells after UV-irradiation (M ± m),[1]; 24 hours,171 ± 2
same,number of clones of e-ras cells after UV-irradiation (M ± m),[1]; 48 hours,108 ± 8
same,number of clones of e-ras cells after UV-irradiation (M ± m),[1]; 72 hours,103 ± 6
same,number of clones of e-ras cells (M ± m),[3]; 0 hours of incubation,268 ± 11
same,number of clones of e-ras cells (M ± m),[3]; 24 hours of incubation,271 ± 2
same,number of clones of e-ras cells (M ± m),[3]; 48 hours of incubation,268 ± 8
same,number of clones of e-ras cells (M ± m),[3]; 72 hours of incubation,243 ± 6
same,number of REF cells after UV-irradiation (M ± m),[4]; 0 hours,801 ± 12 × 10^3 cells
same,number of REF cells after UV-irradiation (M ± m),[4]; 24 hours,420 ± 17 × 10^3 cells
same,number of REF cells after UV-irradiation (M ± m),[4]; 48 hours,251 ± 36 × 10^3 cells
same,number of REF cells after UV-irradiation (M ± m),[4]; 72 hours,208 ± 39 × 10^3 cells
same,"Accumulation of ascitic (weight gain, %)",leukemia L1210 cells [5]; number of injection 0,0.51 ± 0.1%
same,"Accumulation of ascitic (weight gain, %)",leukemia L1210 cells [5]; number of injection 3,6.4 ± 1.4%
same,"Accumulation of ascitic (weight gain, %)",leukemia L1210 cells [5]; number of injection 7,23.6 ± 2.6%
same,Mean survival time,leukemia L1210 cells [5],10.2 ± 0.8
same,number of REF cells (M ± m),[6]; 0 hours of incubation,801 ± 12 × 10^3 cells
same,number of REF cells (M ± m),[6]; 24 hours of incubation,1420 ± 17 × 10^3 cells
same,number of REF cells (M ± m),[6]; 48 hours of incubation,2651 ± 36 × 10^3 cells
same,number of REF cells (M ± m),[6]; 72 hours of incubation,5298 ± 39 × 10^3 cells
same,"Accumulation of ascitic (weight gain, %)",leukemia P388 cells [8]; number of injection 0,0.5 ± 0.1%
same,"Accumulation of ascitic (weight gain, %)",leukemia P388 cells [8]; number of injection 3,5.4 ± 1.4%
same,"Accumulation of ascitic (weight gain, %)",leukemia P388 cells [8]; number of injection 7,19.6 ± 1.6%
same,Mean survival time,leukemia P388 cells [8],20.6 ± 1.8
same,"Accumulation of ascitic (weight gain, %)",[9]; number of injection 0,0.5 ± 0.2%
same,"Accumulation of ascitic (weight gain, %)",[9]; number of injection 3,11.4 ± 1.1%
same,"Accumulation of ascitic (weight gain, %)",[9]; number of injection 7,24.6 ± 2.2%
same,Mean survival time,[9],10.3 ± 1.8
NCCSSCCNC(=O)CNC(=O)C(CSSCC(NC(=O)CCC(N)C(=O)O)C(=O)NCC(=O)O)NC(=O)CCC(N)C(=O)O (stereo not shown) [S-thioeethylamine-GSSG + normal saline],"Accumulation of ascitic (weight gain, %)",leukemia P388 cells [8]; number of injection 0,0.7 ± 0.2%
same,"Accumulation of ascitic (weight gain, %)",leukemia P388 cells [8]; number of injection 3,2.1 ± 0.4%
same,"Accumulation of ascitic (weight gain, %)",leukemia P388 cells [8]; number of injection 7,8.2 ± 1.2%
same,Mean survival time,leukemia P388 cells [8],28.2 ± 0.8
